Reference: US5686486A, “4-hydroxy-benzopyran-2-ones and 4-hydroxy-cycloalkyl[b]pyran-2-ones useful to treat retroviral infections” (priority 1995, dated 1997)
Where “and” joins values, the source holds several entries; their conditions need not be identical. Identical values can stand only once. Like-named read-outs stand apart in the source and are kept apart here.

Target: HIV-1 protease (Human immunodeficiency virus type 1 group M subtype B, UniProt P04585)
Test: biochemical
Conditions: for IC50: HIV-1 Protease IC50; for inhibition at 1 µM: read-out: HIV-1 Protease % Inhib, dose 1.000 uM; for inhibition at 100 µM: read-out: HIV-1 Protease % Inhib, dose 100.000 uM; for inhibition at 0.123 µM: read-out: HIV-1 Protease % Inhib, dose 0.123 uM; for inhibition at 0.37 µM: read-out: HIV-1 Protease % Inhib, dose 0.370 uM
Procedure, shortened: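 Percent inhibition derived from fluorescent cleavage product separated by filtration after streptavidin-bead capture of intact biotin/FITC substrate. Reaction: enzyme (10 μl, 0.1 μM stock) with substrate (20 μl, 0.2 μM stock) and compound, 1 h at room temperature in dark, pH 5.5 acetate buffer with 1.0 M NaCl and 0.05% NP-40.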

[1] = read-out: HIV-1 Protease % Inhib, dose 10.000 uM
[2] = dose 1.100 uM, read-out: HIV-1 Protease % Inhib
[3] = dose 3.300 uM, read-out: HIV-1 Protease % Inhib
[4] = dose 10.000 uM, read-out: HIV-1 Protease % Inhib
[5] = dose 30.000 uM, read-out: HIV-1 Protease % Inhib
[6] = read-out: HIV-1 Protease % Inhib, dose 1.100 uM
[7] = read-out: HIV-1 Protease % Inhib, dose 3.300 uM
[8] = read-out: HIV-1 Protease % Inhib, dose 30.000 uM

SMILES	inhibition at 1 µM	inhibition at 10 µM [1]	inhibition at 100 µM	other results
COc1ccc2c(O)c(C(C3CC3)C3CC3)c(=O)oc2c1 [Example 80, Coumarin, 3-[bis(cyclopropyl)methyl]-4-hydroxy-7-methoxy-]	< 10%	62.6%	102%	IC50: 8.5 µM
CC(C)(C)OC(=O)CC(c1ccccc1)c1c(O)c2ccccc2oc1=O (stereo not drawn) [Example 66, 4-hydroxy-3-[α-tert-butyloxycarbonylmethyl]benzylcoumarin]	< 10%	< 10%	52.6%	
CCC(c1cccc(NC(=O)CCc2ccccc2)c1)c1c(O)c2ccccc2oc1=O (stereo not drawn) [Example 25, 4-Hydroxy-3-[1-[3-[(1-oxo-3-phenylpropyl)amino]phenyl]propyl]-coumarin]	11.4%	78.6%	115%	IC50: 5.2 µM
O=c1oc2ccccc2c(O)c1CCc1ccccc1 [Example 1, 4-Hydroxy-3-phenethylcoumarin]		15.3%	66.9%	inhibition at 20 µM (read-out: HIV-1 Protease % Inhib, dose 20.000 uM): 51.6%; inhibition at 200 µM (read-out: HIV-1 Protease % Inhib, dose 200.000 uM): 92.8%
O=c1oc2c(c(O)c1C(c1ccc(CNS(=O)(=O)c3ccc(F)cc3)o1)C1CC1)CCCCCC2 (stereo not drawn) [Example 390]				inhibition at 1.1 µM [2]: 13.1%; inhibition at 3.3 µM [3]: 43.6%; inhibition at 10 µM [4]: 66.4%; inhibition at 30 µM [5]: 85.2%
Cc1cc(C)c2c(c1)C(c1c(O)c3ccccc3oc1=O)CCO2 (stereo not drawn) [Example 153, 4-Hydroxy-6',8'-Dimethyl-3',4'-dihydro-2'H-[3',4']bicromenyl-2-one]	< 10%	34%		HIV-1 Protease % Inhib (dose 100.000 uM): 79.57% and 115.36%
O=c1oc2c(c(O)c1C(c1cccc(NS(=O)(=O)c3c(Cl)cccc3Cl)c1)C1CC1)CCCCCC2 (stereo not drawn) [Example 295, 2,6-Dichloro-N-[3-[cyclopropyl(5,6,7,8,9,10-hexahydro-4-hydroxy-2'-oxo-2H-cycloocta[b]pyran-3-yl)methyl]phenyl]-benzenesulfonamide]				inhibition at 1.1 µM [2]: 25.9%; inhibition at 3.3 µM [3]: 57%; inhibition at 10 µM [4]: 87.5%; inhibition at 30 µM [5]: 100%
O=c1oc2ccccc2c(O)c1C1CCCCc2ccccc21 (stereo not drawn) [Example 75, 4-Hydroxy-3-(5,6,7,8,9-tetrahydro-5H-benzocycloheptenyl)-coumarin]	14.5%	72.7%	96.6%	IC50: 2.4 µM
COC(=O)C(C(=O)OC)C(c1ccccc1)c1c(O)c2ccccc2oc1=O (stereo not drawn) [Example 157, 2-((4-Hydroxy-2-oxo-2H-chromen-3-yl)-phenyl-methyl)-malonic acid dimethyl ester]	< 10%	< 10%	64%	
O=c1oc2c(c(O)c1C(c1cccc(NS(=O)(=O)c3cccc(Cl)c3)c1)C1CC1)CCCCCC2 (stereo not drawn) [Example 289]		95.3%		inhibition at 0.123 µM: 63.7%; inhibition at 0.37 µM: 80%; inhibition at 1.1 µM [6]: 91.1%; inhibition at 3.3 µM [7]: 97.3%; inhibition at 30 µM [8]: 101%
CCC(c1ccccc1)c1c(O)c2ccc(OCCN3CCOCC3)cc2oc1=O (stereo not drawn) [Example 141, 4-Hydroxy-7-(2-morpholin-4-yl-ethoxy)-3-(1-phenyl-propyl)-chromen-2-one]	14.2%	77.4%	103%	
Nc1ccc(S(=O)(=O)Nc2cccc(C(c3c(O)c4c(oc3=O)CCCCCC4)C3CC3)c2)cc1 (stereo not drawn) [Example 348 (First Title Compound), 4-Amino-N-[3-[cyclopropyl(5,6,7,8,9,10-hexahydro-4-hydroxy-2-oxo-2H-cycloocta[b]pyran-3-yl)methyl]phenyl]-benzenesulfonamide]		113%		inhibition at 0.123 µM: 28.1%; inhibition at 0.37 µM: 80.7%; inhibition at 1.1 µM [6]: 103%; inhibition at 3.3 µM [7]: 108%; inhibition at 30 µM [8]: 109%
CCC(c1cccc(OCC(O)CO)c1)c1c(O)c2ccccc2oc1=O (stereo not drawn) [Example 68, 3-(1'-(3-((2,3-Dihydroxy)propyloxy)phenyl)propyl)-4-hydroxycoumarin]	< 10%	< 10%	56%	
